Reference: US6372446B1, “Method of selectively determining a fungal biomass” (Mycometer ApS, priority 1997, dated 2002)

Tests used:
Format in all cases: cell-based
[1] = test system: Aspergillus oryzae (AGM 11); assay: Screening of fungi for enzyme activity with 4-methylumbelliferone-labelled substrates; settings: substrate 10 μM, 25° C., pH 5; for Enzyme activity: amount of released 4-methylumbelliferone: mineral medium; for Enzyme activity: amount of released 4-methylumbelliferone during 5 hours of incubation: vegetable juice medium
[2] = test system: Aureobasidium pullulans (QM 3092); assay: as above; settings: substrate 10 μM, 25° C., pH 5; for Enzyme activity: amount of released 4-methylumbelliferone during 5 hours of incubation: Aureobasidium pulluians (QM 3092), vegetable juice medium; for Enzyme activity: amount of released 4-methylumbelliferone: Aureobasidium pullulans (QM 3092), mineral medium
Eurotium sp. (AAS 36) = assay: as above; settings: substrate 10 μM, 25° C., pH 5; for Enzyme activity: amount of released 4-methylumbelliferone: mineral medium; for Enzyme activity: amount of released 4-methylumbelliferone during 5 hours of incubation: vegetable juice medium
[3] = test system: Schizophyllum commune (AGM 25); assay: as above; settings: substrate 10 μM, 25° C., pH 5; for Enzyme activity: amount of released 4-methylumbelliferone: mineral medium; for Enzyme activity: amount of released 4-methylumbelliferone during 5 hours of incubation: vegetable juice medium
[4] = test system: Penicillium solitum (IBT 13771); assay: as above; settings: substrate 10 μM, 25° C., pH 5; for Enzyme activity: amount of released 4-methylumbelliferone: mineral medium; for Enzyme activity: amount of released 4-methylumbelliferone during 5 hours of incubation: vegetable juice medium
[5] = test system: Rhizomucor pusillus (AAS 300); assay: as above; settings: substrate 10 μM, 25° C., pH 5; for Enzyme activity: amount of released 4-methylumbelliferone: mineral medium; for Enzyme activity: amount of released 4-methylumbelliferone during 5 hours of incubation: vegetable juice medium
[6] = test system: Sodaria fimicola (AAS 17); assay: as above; settings: substrate 10 μM, 25° C., pH 5; for Enzyme activity: amount of released 4-methylumbelliferone: mineral medium; for Enzyme activity: amount of released 4-methylumbelliferone during 5 hours of incubation: vegetable juice medium
[7] = test system: Mucor racemosus (AAS 310); assay: as above; settings: substrate 10 μM, 25° C., pH 5; for Enzyme activity: amount of released 4-methylumbelliferone: mineral medium; for Enzyme activity: amount of released 4-methylumbelliferone during 5 hours of incubation: vegetable juice medium
[8] = test system: Cladosporium herbarum (AGM 8); assay: as above; settings: substrate 10 μM, 25° C., pH 5; for Enzyme activity: amount of released 4-methylumbelliferone: mineral medium; for Enzyme activity: amount of released 4-methylumbelliferone during 5 hours of incubation: vegetable juice medium
[9] = test system: Paecilomyces farinosus (AGM 5); assay: as above; settings: substrate 10 μM, 25° C., pH 5; for Enzyme activity: amount of released 4-methylumbelliferone: mineral medium; for Enzyme activity: amount of released 4-methylumbelliferone during 5 hours of incubation: vegetable juice medium
all fungi tested = assay: Screening of a diverse selection of fungi for ability to degrade 11 substrates (summary); settings: mineral medium and vegetable juice medium
Method: A number of fungi representing different taxonomic groupings were screened for enzyme activity. The fungi were grown for in 24 well plates (Nunclon Multidish, Life Technologies A/S) (well volume 3.4 ml) containing 1.5 ml of agarized growth medium. After a growth period of 10 days at 25° C., 1.5 ml citrate-phosphat buffer (pH 5) were added to the wells and one of 11 enzyme substrates were then added to each well and incubated for 5 hours at 25° C. after which the fluorescence of each well was measured. For each fungus two wells were incubated with each enzyme substrate. All substrates were used in a final concentration of 10 μM. The substrate only and the organism plus the agarized medium were included as controls. […] The fungi subjected to the assaying procedure were all obtained from the culture collection of the Department of General Microbiology at the University of Copenhagen, Denmark.

[10] = test system: Trametes versicolor (AGM 24); assay: Screening of fungi for enzyme activity with 4-methylumbelliferone-labelled substrates; settings: substrate 10 μM, 25° C., pH 5; for Enzyme activity: amount of released 4-methylumbelliferone: mineral medium; for Enzyme activity: amount of released 4-methylumbelliferone during 5 hours of incubation: vegetable juice medium
[11] = test system: Ascobolus crenulatus (AAS 1); assay: as above; settings: substrate 10 μM, 25° C., pH 5; for Enzyme activity: amount of released 4-methylumbelliferone: mineral medium; for Enzyme activity: amount of released 4-methylumbelliferone during 5 hours of incubation: vegetable juice medium
[12] = test system: Penicillium commune (IBT 13713); assay: as above; settings: substrate 10 μM, 25° C., pH 5; for Enzyme activity: amount of released 4-methylumbelliferone: mineral medium; for Enzyme activity: amount of released 4-methylumbelliferone during 5 hours of incubation: vegetable juice medium
[13] = test system: Aspergillus versicolor (IBT 13738); assay: as above; settings: substrate 10 μM, 25° C., pH 5; for Enzyme activity: amount of released 4-methylumbelliferone: mineral medium; for Enzyme activity: amount of released 4-methylumbelliferone during 5 hours of incubation: vegetable juice medium

Compound | Enzyme activity: amount of released 4-methylumbelliferone [1] | Enzyme activity: amount of released 4-methylumbelliferone during 5 hours of incubation [1] | Enzyme activity: amount of released 4-methylumbelliferone during 5 hours of incubation [2] | Enzyme activity: amount of released 4-methylumbelliferone [2] | Enzyme activity: amount of released 4-methylumbelliferone (Eurotium sp. (AAS 36)) | Enzyme activity: amount of released 4-methylumbelliferone during 5 hours of incubation (Eurotium sp. (AAS 36)) | Enzyme activity: amount of released 4-methylumbelliferone [3] | Enzyme activity: amount of released 4-methylumbelliferone during 5 hours of incubation [3] | Enzyme activity: amount of released 4-methylumbelliferone [4] | Enzyme activity: amount of released 4-methylumbelliferone during 5 hours of incubation [4] | Enzyme activity: amount of released 4-methylumbelliferone [5] | Enzyme activity: amount of released 4-methylumbelliferone during 5 hours of incubation [5] | Enzyme activity: amount of released 4-methylumbelliferone [6] | Enzyme activity: amount of released 4-methylumbelliferone during 5 hours of incubation [6] | Enzyme activity: amount of released 4-methylumbelliferone [7] | Enzyme activity: amount of released 4-methylumbelliferone during 5 hours of incubation [7] | Enzyme activity: amount of released 4-methylumbelliferone [8] | Enzyme activity: amount of released 4-methylumbelliferone during 5 hours of incubation [8] | Enzyme activity: amount of released 4-methylumbelliferone [9] | Enzyme activity: amount of released 4-methylumbelliferone during 5 hours of incubation [9] | other results
CC(=O)N[C@H]1[C@H](Oc2ccc3c(C)cc(=O)oc3c2)O[C@H](CO)[C@@H](O[C@@H]2O[C@H](CO)[C@@H](O[C@@H]3O[C@H](CO)[C@@H](O)[C@H](O)[C@H]3NC(C)=O)[C@H](O)[C@H]2NC(C)=O)[C@@H]1O [substrate 4, 4-methylumbelliferyl β-D-N,N′,N″triacetylchitotrioside] | ** (1 ≦ ** 2) | *** (2 ≦ ***) | *** (2 ≦ ***) | *** (2 ≦ ***) | ** (1 ≦ ** 2) | ** (1 ≦ ** 2) | ** (1 ≦ ** 2) | *** (2 ≦ ***) | ** (1 ≦ ** 2) | *** (2 ≦ ***) | *** (2 ≦ ***) | *** (2 ≦ ***) | ** (1 ≦ ** 2) | *** (2 ≦ ***) | ** (1 ≦ ** 2) | *** (2 ≦ ***) | * (0.4 ≦ * < 1) | * (0.4 ≦ * < 1) | ** (1 ≦ ** 2) | *** (2 ≦ ***) | ability to degrade the substrate (all fungi tested): could be demonstrated in all fungi tested; Enzyme activity: amount of released 4-methylumbelliferone [10]: ** (1 ≦ ** 2); Enzyme activity: amount of released 4-methylumbelliferone during 5 hours of incubation [10]: *** (2 ≦ ***); Enzyme activity: amount of released 4-methylumbelliferone [11]: ** (1 ≦ ** 2); Enzyme activity: amount of released 4-methylumbelliferone during 5 hours of incubation [11]: ** (1 ≦ ** 2); Enzyme activity: amount of released 4-methylumbelliferone [12]: 0 µmol; Enzyme activity: amount of released 4-methylumbelliferone during 5 hours of incubation [12]: *** (2 ≦ ***); Enzyme activity: amount of released 4-methylumbelliferone [13]: * (0.4 ≦ * < 1); Enzyme activity: amount of released 4-methylumbelliferone during 5 hours of incubation [13]: *** (2 ≦ ***)
Cc1cc(=O)oc2cc(O[C@@H]3O[C@H](C)[C@H](O)[C@H](O)[C@H]3O)ccc12 [substrate 11, 4-methylumbelliferyl β-D-fucoside] | 0 µmol | 0 µmol | 0 µmol | 0 µmol | 0 µmol | 0 µmol | 0 µmol | 0 µmol | 0 µmol | 0 µmol | 0 µmol | 0 µmol | 0 µmol | 0 µmol | 0 µmol | 0 µmol | 0 µmol | 0 µmol | 0 µmol | 0 µmol | Enzyme activity: amount of released 4-methylumbelliferone [10]: 0 µmol; Enzyme activity: amount of released 4-methylumbelliferone during 5 hours of incubation [10]: 0 µmol; Enzyme activity: amount of released 4-methylumbelliferone [11]: 0 µmol; Enzyme activity: amount of released 4-methylumbelliferone during 5 hours of incubation [11]: 0 µmol; Enzyme activity: amount of released 4-methylumbelliferone [12]: 0 µmol; Enzyme activity: amount of released 4-methylumbelliferone during 5 hours of incubation [12]: 0 µmol; Enzyme activity: amount of released 4-methylumbelliferone [13]: 0 µmol; Enzyme activity: amount of released 4-methylumbelliferone during 5 hours of incubation [13]: 0 µmol
Cc1cc(=O)oc2cc(O[C@@H]3O[C@H](CO)[C@@H](O[C@@H]4O[C@H](CO)[C@H](O)[C@H](O)[C@H]4O)[C@H](O)[C@H]3O)ccc12 [substrate 8, 4-methylumbelliferyl β-D-lactoside] | 0 µmol | * (0.4 ≦ * < 1) | 0 µmol | 0 µmol | 0 µmol | 0 µmol | 0 µmol | ** (1 ≦ ** 2) | 0 µmol | 0 µmol | 0 µmol | * (0.4 ≦ * < 1) | 0 µmol | ** (1 ≦ ** 2) | 0 µmol | 0 µmol | 0 µmol | 0 µmol | 0 µmol | 0 µmol | Enzyme activity: amount of released 4-methylumbelliferone [10]: 0 µmol; Enzyme activity: amount of released 4-methylumbelliferone during 5 hours of incubation [10]: 0 µmol; Enzyme activity: amount of released 4-methylumbelliferone [11]: 0 µmol; Enzyme activity: amount of released 4-methylumbelliferone during 5 hours of incubation [11]: 0 µmol; Enzyme activity: amount of released 4-methylumbelliferone [12]: 0 µmol; Enzyme activity: amount of released 4-methylumbelliferone during 5 hours of incubation [12]: 0 µmol; Enzyme activity: amount of released 4-methylumbelliferone [13]: 0 µmol; Enzyme activity: amount of released 4-methylumbelliferone during 5 hours of incubation [13]: 0 µmol
Cc1cc(=O)oc2cc(O[C@H]3O[C@H](CO)[C@@H](O)[C@H](O)[C@H]3O)ccc12 [substrate 7, 4-methylumbelliferyl α-D-glucoside] | 0 µmol | 0 µmol | *** (2 ≦ ***) | *** (2 ≦ ***) | 0 µmol | 0 µmol | 0 µmol | 0 µmol | 0 µmol | 0 µmol | 0 µmol | * (0.4 ≦ * < 1) | 0 µmol | ** (1 ≦ ** 2) | 0 µmol | 0 µmol | 0 µmol | 0 µmol | 0 µmol | 0 µmol | Enzyme activity: amount of released 4-methylumbelliferone [10]: 0 µmol; Enzyme activity: amount of released 4-methylumbelliferone during 5 hours of incubation [10]: 0 µmol; Enzyme activity: amount of released 4-methylumbelliferone [11]: 0 µmol; Enzyme activity: amount of released 4-methylumbelliferone during 5 hours of incubation [11]: 0 µmol; Enzyme activity: amount of released 4-methylumbelliferone [12]: 0 µmol; Enzyme activity: amount of released 4-methylumbelliferone during 5 hours of incubation [12]: 0 µmol; Enzyme activity: amount of released 4-methylumbelliferone [13]: 0 µmol; Enzyme activity: amount of released 4-methylumbelliferone during 5 hours of incubation [13]: 0 µmol
